This passage reports IC50 results from patent US20170001990A1 (Genentech, Inc., priority 2014, published 2017).

This assay deals with Human recombinant carboxy-terminal his-tagged LDHA (amino acids 2-332) (Homo sapiens, UniProt P00338). Kind of assay: LDHA enzyme inhibition assay (NADH fluorescence). The settings on record: LDHA IC50 (μM), 1 nM LDHA, NADH and pyruvate, stereochemistry of tested sample given.
Broadly, the IC50 is the concentration that inhibits the measured activity by half. `COc1ccccc1Oc1cccc(C2(c3ccsc3)CC(=O)C(Sc3ccccc3Cl)C(=O)N2)n1` (centres unmarked) [Example 61, 3-(2-chlorophenyl)sulfanyl-6-[6-(2-methoxyphenoxy)-2-pyridyl]-6-(3-thienyl) piperidine-2,4-dione]: the IC50 came to 0.02 µM.

For `Cc1cnc(Nc2cccc(C3(c4ccsc4)CC(=O)C(Sc4ccccc4Cl)C(=O)N3)n2)s1` (centres unmarked) [Example 288, 3-((2-chlorophenyl)thio)-6-(6-((5-methylthiazol-2-yl)amino)pyridin-2-yl)-6-(thiophen-3-yl)piperidine-2,4-dione], the IC50 was found to be 0.141 µM.

With `O=C1CC(c2ccsc2)(c2cccc(OCC3CC(F)(F)C3)n2)NC(=O)C1Sc1ccccc1Cl` (single isomer, unassigned) [Example 215, 3-(2-chlorophenyl)sulfanyl-6-[6-[(3,3-difluorocyclo-butyl)methoxy]-2-pyridyl]-6-(3-thienyl)piperidine-2,4-dione], the IC50 turned out to be 0.014 µM.

As to `O=C1CC(c2ccsc2)(c2cccc(CCc3ccc(F)cc3)n2)NC(=O)C1Sc1ccccc1Cl` (single isomer, unassigned) [Example 268, 3-((2-chlorophenyl)thio)-6-(6-(4-fluorophenethyl)pyridin-2-yl)-6-(thiophen-3-yl)piperidine-2,4-dione], the 50% inhibitory concentration (IC50) worked out at 0.402 µM.

In the case of `CCC(C)COc1cccc(C2(c3ccsc3)CC(=O)C(Sc3ccccc3Cl)C(=O)N2)n1` (centres unmarked) [Example 188, 3-(2-chlorophenyl)sulfanyl-6-[6-(2-methylbutoxy)-2-pyridyl]-6-(3-thienyl) piperidine-2,4-dione], the IC50 was 0.015 µM.

On to `CC(C)(O)CCCOc1cccc(C2(c3ccsc3)CC(=O)C(Sc3ccccc3Cl)C(=O)N2)n1` (single isomer, unassigned) [Example 135, 3-(2-chlorophenyl)sulfanyl-6-[6-(4-hydroxy-4-methyl-pentoxy)-2-pyridyl]-6-(3-thienyl) piperidine-2,4-dione], for which the IC50 is 0.04 µM.

As to `O=C1CC(c2ccsc2)(c2cccc(OCCC3CC3)n2)NC(=O)C1Sc1ccccc1Cl` (centres unmarked) [Example 81, 3-((2-chlorophenyl)thio)-6-(6-(2-cyclopropyl-ethoxy)pyridin-2-yl)-6-(thiophen-3-yl)piperidine-2,4-dione], the IC50 was determined as 0.229 µM.

On to `O=C1CC(c2ccsc2)(c2cccc(OC3CCCCC3)n2)NC(=O)C1Sc1ccccc1Cl` (single isomer, unassigned) [Example 157, 3-(2-chlorophenyl)sulfanyl-6-[6-(cyclohexoxy)-2-pyridyl]-6-(3-thienyl) piperidine-2,4-dione], for which the IC50 amounted to 0.03 µM.

In the case of `O=C1CC(c2ccsc2)(c2cccc(Oc3cccc(Cl)c3)n2)NC(=O)C1Sc1ccccc1Cl` (centres unmarked) [Example 63, 6′-(3-chlorophenoxy)-5-((2-chlorophenyl)thio)-4-hydroxy-2-(thiophen-3-yl)-2,3-dihydro-[2,2′-bipyridin]-6(1H)-one], the IC50 was found to be 0.037 µM.

With `O=C1CC(c2ccsc2)(c2cccc(Oc3cc(F)cc(F)c3)n2)NC(=O)C1Sc1ccccc1Cl` (centres unmarked) [Example 62, 3-(2-chlorophenyl)sulfanyl-6-[6-(3,5-difluoro-phenoxy)-2-pyridyl]-6-(3-thienyl)piperidine-2,4-dione], the IC50 was 0.036 µM.

With `O=C1CCC(COc2cccc(C3(c4ccsc4)CC(=O)C(Sc4ccccc4Cl)C(=O)N3)n2)O1` (single isomer, unassigned) [Example 212, 3-(2-chlorophenyl)sulfanyl-6-[6-[(5-oxotetrahydrofuran-2-yl)methoxy]-2-pyridyl]-6-(3-thienyl)piperidine-2,4-dione], the IC50 was found to be 0.03 µM.

Turning to `O=C1CC(c2ccsc2)(c2cccc(CC3CCOCC3)n2)NC(=O)C1Sc1ccccc1Cl` (centres unmarked) [Example 267, 3-((2-chlorophenyl)thio)-6-(6-((tetrahydro-2H-pyran-4-yl)methyl)pyridin-2-yl)-6-(thiophen-3-yl) piperidine-2,4-dione], the IC50 came out at 1.64 µM.

As for `COc1cc(Cc2cccc(C3(c4ccsc4)CC(=O)C(Sc4ccccc4Cl)C(=O)N3)n2)ccc1F` (single isomer, unassigned) [Example 284, 3-((2-chlorophenyl)thio)-6-(6-(4-fluoro-3-methoxy-benzyl)pyridin-2-yl)-6-(thiophen-3-yl)piperidine-2,4-dione], the IC50 was 0.041 µM.

For the molecule `O=C1CC(c2ccsc2)(c2cccc(OCc3ccc(F)cc3)n2)NC(=O)C1Sc1ccccc1Cl` (centres unmarked) [Example 300, 3-((2-chlorophenyl)thio)-6-(6-((4-fluorobenzyl)oxy)pyridin-2-yl)-6-(thiophen-3-yl)piperidine-2,4-dione], the IC50 turned out to be 0.144 µM.

On to `O=C1CC(c2ccsc2)(c2cccc(OCCC3CCCC3)n2)NC(=O)C1Sc1ccccc1Cl` (single isomer, unassigned) [Example 125, 3-((2-chlorophenyl)thio)-6-(6-(2-cyclopentyl-ethoxy)pyridin-2-yl)-6-(thiophen-3-yl) piperidine-2,4-dione], for which the IC50 was 0.003 µM.

With `CC(Oc1cccc(C2(c3ccsc3)CC(=O)C(Sc3ccccc3Cl)C(=O)N2)n1)c1cccc(F)c1` (centres unmarked) [Example 312, 3-((2-chlorophenyl)thio)-6-(6-(1-(3-fluorophenyl)ethoxy)pyridin-2-yl)-6-(thiophen-3-yl)piperidine-2,4-dione], the IC50 was found to be 0.119 µM.

`COCCCOc1cccc(C2(c3ccsc3)CC(=O)C(Sc3ccccc3Cl)C(=O)N2)n1` (single isomer, unassigned) [Example 228, 3-(2-chlorophenyl)sulfanyl-6-[6-(3-methoxypropoxy)-2-pyridyl]-6-(3-thienyl) piperidine-2,4-dione]: the IC50 was 0.419 µM.

On to `O=C1CC(c2ccc(N3CC4(COC4)C3)cc2)(c2ccsc2)NC(=O)C1Sc1ccccc1Cl` (centres unmarked) [Example 45, 3-(2-chlorophenyl) sulfanyl-6-[4-(2-oxa-6-azaspiro[3.3]heptan-6-yl)phenyl]-6-(3-thienyl)piperidine-2,4-dione], for which the IC50 amounted to 0.069 µM.

As to `CC(Nc1cccc(C2(c3ccsc3)CC(=O)C(Sc3ccccc3Cl)C(=O)N2)n1)C1CC1` (centres unmarked) [Example 332], the IC50 is 0.168 µM.

For the molecule `COC1CCC(Oc2cccc(C3(c4ccsc4)CC(=O)C(Sc4ccccc4Cl)C(=O)N3)n2)CC1` (centres unmarked) [Example 320, 5-(2-chlorophenyl)sulfanyl-4-hydroxy-2-[6-(4-methoxycyclohexoxyl)-2-pyridyl]-2-(3-thienyl)-1,3-dihydropyridin-6-one], the IC50 was found to be 0.093 µM.

`O=C1CC(c2ccsc2)(c2cccc(Oc3cccc(F)c3)n2)NC(=O)C1Sc1ccccc1Cl` (single isomer, unassigned) [Example 47, 3-(2-chlorophenyl) sulfanyl-6-[6-(3-fluorophenoxy)-2-pyridyl]-6-(3-thienyl)piperidine-2,4-dione]: the IC50 was determined as 0.12 µM.

As to `O=C1CC(c2ccsc2)(c2cccc(Oc3ccc(F)c(Cl)c3)n2)NC(=O)C1Sc1ccccc1Cl` (single isomer, unassigned) [Example 108, 6-(6-(3-chloro-4-fluoro-phenoxy)pyridin-2-yl)-3-((2-chlorophenyl)thio)-6-(thiophen-3-yl) piperidine-2,4-dione], the IC50 was determined as 0.108 µM.

For `COc1ccc(N(C)c2cccc(C3(c4ccsc4)CC(=O)C(Sc4ccccc4Cl)C(=O)N3)n2)cc1` (centres unmarked) [Example 273, 3-((2-chlorophenyl)thio)-6-(6-((4-methoxyphenyl) (methyl)amino)pyridin-2-yl)-6-(thiophen-3-yl) piperidine-2,4-dione], the IC50 turned out to be 0.072 µM.
